{
  "source": "paper PMC7151106",
  "about": "(Pharmaceutics, 2020)",
  "key": {"SGLT1": {"molecular_target": "T1, SGLT1 (Homo sapiens, UniProt P13866)", "T1 construct": "host or cells: CHO", "T1 sequence (P13866 1-664)": "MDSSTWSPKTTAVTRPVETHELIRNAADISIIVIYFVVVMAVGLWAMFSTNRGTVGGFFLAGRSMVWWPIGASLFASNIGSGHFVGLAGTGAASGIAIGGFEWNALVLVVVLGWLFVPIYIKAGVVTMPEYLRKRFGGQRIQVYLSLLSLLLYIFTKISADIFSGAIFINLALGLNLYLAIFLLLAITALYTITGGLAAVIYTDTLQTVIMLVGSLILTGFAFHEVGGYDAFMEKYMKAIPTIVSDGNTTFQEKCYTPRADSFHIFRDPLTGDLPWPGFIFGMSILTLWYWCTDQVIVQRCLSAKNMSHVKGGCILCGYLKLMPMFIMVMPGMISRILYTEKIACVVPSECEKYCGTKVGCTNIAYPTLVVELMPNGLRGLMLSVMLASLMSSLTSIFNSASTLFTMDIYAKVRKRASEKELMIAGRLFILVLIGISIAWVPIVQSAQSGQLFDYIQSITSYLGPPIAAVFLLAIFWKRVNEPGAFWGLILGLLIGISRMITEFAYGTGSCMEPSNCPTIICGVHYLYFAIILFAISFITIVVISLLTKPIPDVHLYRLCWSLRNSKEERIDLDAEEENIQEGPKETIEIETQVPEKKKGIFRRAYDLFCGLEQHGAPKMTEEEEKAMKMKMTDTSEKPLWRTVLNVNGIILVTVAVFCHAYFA", "experiment": "Inhibition of [14C]AMG uptake in CHO-SGLT1 cells", "type": "cell-based", "settings": "10 μM [14C]AMG, 2 h", "experimental": "CHO cells overexpressing SGLT1 and SGLT2 cells (CHO-SGLT1 and -SGLT2) and CHO-mock cells were characterized as previously described. Cells were maintained in RPMI1640 medium supplemented with 10% fetal bovine serum and 200 µg/mL G418 at 37 °C in 5% CO2 conditions. CHO-SGLT1 and -SGLT2 cells were seeded at a density of 1 × 10^5 cells/well in 96-well plates. After 24 h, the growth medium was discarded from the cells, and the cells were washed with pre-warmed Na^+-free buffer (10 mM HEPES, 5 mM Tris, 140 mM choline chloride, 2 mM KCl, 1 mM CaCl2, 1 mM MgCl2, pH7.4) and incubated for 1 h in Na^+-free buffer. After replacing Na^+-free buffer with Na^+ gradient buffer (10 mM HEPES, 5 mM Tris, 140 mM NaCl, 2 mM KCl, 1 mM CaCl2, 1 mM MgCl2, pH7.4) containing 10 µM [^14C]AMG, the uptake of [^14C]AMG into the CHO-mock cells and CHO-SGLT1 and -SLGT2 cells was measured for 0.5, 1, 1.5, 2, and 3 h. After a predetermined incubation time, cells were washed three times with 200 µL of ice-cold Na^+-free buffer immediately after placing the plates on ice. Then, the cells were lysed with 10% SDS, and the cell lysates were mixed with Optiphase cocktail solution. Thereafter, the radioactivity of the cell lysates was measured using a liquid scintillation counter.\nAfter 2 h, cells were washed three times with 200 µL of ice-cold Na^+-free buffer and the cells were lysed with 10% SDS (40 µL), followed by adding Optiphase cocktail solution (200 µL). The radioactivity of the cell lysates was measured using a liquid scintillation counter. The SGLT1 or SGLT2-mediated uptake of [^14C]AMG was calculated by the subtraction of the uptake rates of [^14C]AMG into the mock cells from those of the CHO-SGLT1 and -SLGT2 cells. In the inhibition studies, the percentages of the transport rate of AMG with or without SGLT2 inhibitors were calculated and the data were fitted to an inhibitory effect model. The IC50 (the concentration of the inhibitor to show half-maximal inhibition) values were calculated using Sigma Plot ver.10.0 (Systat Software, Inc.; San Jose, CA, USA)."}, "OAT3": {"system": "T2, OAT3", "T2 construct": "host or cells: HEK293", "experiment": "Substrate specificity / uptake in HEK293-OAT3 cells", "type": "in vitro ADME", "settings": "5 min", "experimental": "(§1) HEK293-mock cells and HEK293 cells overexpressing OAT1 and OAT3 transporters (HEK293-OAT1 and -OAT3, respectively) were seeded in poly-D-lysine-coated 24-well plates at a density of 4 × 10^5 cells/well and cultured for 24 h in DMEM supplemented with 10% FBS and 5 mM non-essential amino acids at 37 °C in 8% CO2 condition.\n(§2) For each experiment, the growth medium was discarded after 24 h, and the attached cells were washed with pre-warmed HBSS and incubated with pre-warmed HBSS for 20 min at 37 °C. To confirm the functionality of OAT1 and OAT3, we measured the uptake of 0.1 µM [^3H]PAH and 0.1 µM [^3H]ES, representative substrates for OAT1 and OAT3, respectively, into in the HEK293-mock cells and HEK293-OAT1 and -OAT3 cells, respectively, for 5 min in the presence and absence of 20 µM probenecid, a typical inhibitor for both OAT1 and OAT3 [8, 9]. The cells were then washed three times with 500 μL of ice-cold HBSS immediately after placing the plates on ice. Subsequently, cells were lysed with 10% sodium dodecyl sulfate and mixed with Optiphase cocktail solution overnight. The radioactivity of the cell lysate was measured using a liquid scintillation counter (Microbeta 2; Perkin Elmer Inc., Boston, MA, USA).\n(§3) For the concentration dependency in the uptake of DWP16001, the uptake of DWP16001 in a concentration range of 0.5–50 μM dissolved in HBSS was measured for 5 min at 37 °C in the mock cells and HEK293-OAT1 and -OAT3 cells, respectively. After 5 min, the cells were washed three times with 500 μL of ice-cold HBSS immediately after placing the plates on ice.\n(§4) In the concentration-dependent uptake studies, the transporter-mediated uptake of DWP16001 was calculated by the subtraction of the transport rates of DWP16001 into the mock cells from those of the HEK293-OAT1 and -OAT3 cells. Kinetic parameters for the OAT1- and OAT3-mediated transport of DWP16001 were determined using the Michaelis-Menten equation [V = Vmax⋅S/(Km + S)] [10]."}, "OAT1": {"system": "T3, OAT1", "T3 construct": "host or cells: HEK293", "experiment": "Substrate specificity / uptake in HEK293-OAT1 cells", "type": "in vitro ADME", "settings": "5 min", "experimental": "as §1, §2, §3, §4"}, "SGLT2 [1]": {"molecular_target": "T4, SGLT2 (Homo sapiens, UniProt P31639)", "T4 construct": "host or cells: CHO", "T4 sequence (P31639 1-672)": "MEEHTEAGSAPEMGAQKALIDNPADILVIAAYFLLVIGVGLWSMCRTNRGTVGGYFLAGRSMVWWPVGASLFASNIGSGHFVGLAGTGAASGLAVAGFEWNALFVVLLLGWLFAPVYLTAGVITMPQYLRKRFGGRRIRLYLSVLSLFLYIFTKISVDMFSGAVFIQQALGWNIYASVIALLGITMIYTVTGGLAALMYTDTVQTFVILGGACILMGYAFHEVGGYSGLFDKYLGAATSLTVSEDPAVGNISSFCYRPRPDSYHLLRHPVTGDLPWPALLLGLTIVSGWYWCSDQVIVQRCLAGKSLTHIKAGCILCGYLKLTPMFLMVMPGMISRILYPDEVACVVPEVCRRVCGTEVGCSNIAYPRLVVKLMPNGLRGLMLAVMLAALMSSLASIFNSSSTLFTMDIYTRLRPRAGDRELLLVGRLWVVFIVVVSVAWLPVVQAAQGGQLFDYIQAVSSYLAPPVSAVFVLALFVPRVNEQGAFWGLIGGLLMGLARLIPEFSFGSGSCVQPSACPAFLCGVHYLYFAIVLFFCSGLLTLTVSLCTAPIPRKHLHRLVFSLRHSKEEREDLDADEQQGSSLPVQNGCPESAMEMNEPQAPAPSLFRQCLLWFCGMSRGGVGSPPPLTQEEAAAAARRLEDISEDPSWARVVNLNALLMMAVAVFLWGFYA", "experiment": "Recovery of SGLT2 activity after washout following 24 h exposure in CHO-SGLT2 cells", "type": "cell-based", "settings": "0.2–200 nM", "experimental": "After 24 h, the RPMI1640 medium was replaced with pre-warmed fresh RPMI1640 medium and incubated for 1, 2, 3, 5, and 6 h, and proceeded another pre-incubation with Na^+-free buffer for 1 h. Then, after replacing Na^+-free buffer with Na^+ gradient buffer containing 10 µM [^14C]AMG, the uptake of [^14C]AMG into the CHO-SGLT2 cells was measured for 2 h. After 2 h of incubation, the radioactivity of the cell lysate was measured following the same sample preparation method described above."}, "[2]": {"parameters": "method as in PMID 27430987", "settings": "cited from earlier work"}, "SGLT2 [3]": {"molecular_target": "T4, SGLT2", "experiment": "Mode of inhibition on SGLT2 (Dixon plots) in CHO-SGLT2 cells", "type": "cell-based", "settings": "1, 2.5, 5, 50 μM [14C]AMG", "experimental": "The radioactivity of the cell lysate was measured following the same sample preparation method described above."}, "[4]": {"settings": "mouse, in vivo, po, 1 mg/kg", "description": "(§5) An aliquot (30 µL) of each plasma sample was stored at −80 °C until the analysis. […] An aliquot (50 µL) of each kidney homogenate sample was stored at −80 °C until the analysis.\n(§6) For the analysis of SGLT2 inhibitors, aliquots of plasma (30 µL) and kidney homogenate (50 µL) were added to 100 μL of aqueous solution of D4-DWP16001 (IS, 20 ng/mL), and vigorously mixed with 500 μL methyl tert-butyl ether (MTBE) for 15 min. After centrifugation at 16,000 g for 5 min, samples were kept for 1 h at −80 °C to make an aqueous layer freeze. An organic upper layer was transferred to a clean tube and evaporated to dryness under a gentle stream of nitrogen. Then, the dried extract was reconstituted in 150 µL of mobile phase, and a 3 µL aliquot of the reconstituent was injected into a liquid chromatography–tandem mass spectrometry (LC–MS/MS) system.\n(§7) Pharmacokinetic parameters, such as the area under plasma concentration-time curve from zero to infinity (AUC), were calculated from plasma concentration vs time curves using non-compartment analysis with WinNonlin (version 5.1; Pharsights, Cary, NC, USA). The AUC ratios (i.e., ratios of kidney AUC to plasma AUC) were calculated by dividing the AUC of the three SGLT2 inhibitors in the kidney by the plasma AUC values of the three SGLT2 inhibitors."}, "SGLT2 [5]": {"molecular_target": "T4, SGLT2", "experiment": "Time dependency of SGLT2 inhibition (preincubation) in CHO-SGLT2 cells", "type": "cell-based", "settings": "pretreatment 0, 1, 2 h", "experimental": "After 2 h of incubation, the radioactivity of the cell lysate was measured following the same sample preparation method described above."}, "in vivo": {"experiment": "in vivo", "settings": "ICR, mouse, po, 1 mg/kg", "description": "as §5, §6, §7"}},
  "data": [
    {"compound": "CO[C@H]1O[C@H](CO)[C@@H](O)[C@H](O)[C@H]1O", "note": "[AMG, methyl a-D-glucopyranoside]", "values": [
      {"measurement": "AMG uptake into CHO-SGLT1 cells relative to CHO-mock cells", "setting": "SGLT1", "value": 42, "unit": "fold"}
    ]},
    {"compound": "C[C@]12CC[C@@H]3c4ccc(OS(=O)(=O)O)cc4CC[C@H]3[C@@H]1CCC2=O", "note": "[ES, Estrone-3-sulfate]", "values": [
      {"measurement": "Increase in probe substrate uptake in HEK293-OAT3 vs HEK293-mock cells", "setting": "OAT3; 0.1 μM [3H]ES", "value": 16.4, "unit": "fold"}
    ]},
    {"compound": "Nc1ccc(C(=O)NCC(=O)O)cc1", "note": "[PAH, Para-aminohipuric acid]", "values": [
      {"measurement": "Increase in probe substrate uptake in HEK293-OAT1 vs HEK293-mock cells", "setting": "OAT1; 0.1 μM [3H]PAH", "value": 14.7, "unit": "fold"}
    ]},
    {"compound": "CCOc1ccc(Cc2cc([C@@H]3O[C@H](CO)[C@@H](O)[C@H](O)[C@H]3O)ccc2Cl)cc1", "note": "[Dapagliflozin, dapagliflozin]", "values": [
      {"measurement": "Time after drug removal to recovery of SGLT2 activity to the control level", "setting": "SGLT2 [1]", "value": 4, "unit": "h"},
      {"measurement": "logP", "setting": "physchem", "value": 2.27},
      {"measurement": "Duration of increased urinary glucose excretion post dose", "setting": "[2]", "value": "≥ 18", "unit": "h"},
      {"measurement": "Mode of inhibition on SGLT2", "setting": "SGLT2 [3]", "value": "reversible and competitive"},
      {"measurement": "AUC72h", "setting": "[4]", "value": "26.30 ± 3.34", "unit": "μg∙h/g tissue"},
      {"measurement": "Time dependency of SGLT2 inhibition", "setting": "SGLT2 [5]", "value": "time-independent"},
      {"measurement": "Substrate for OAT1", "setting": "OAT1; 2 μM, HEK293-OAT1 vs mock, ± 20 μM probenecid", "value": "not substrates"},
      {"measurement": "Substrate for OAT3", "setting": "OAT3; 2 μM, HEK293-OAT3 vs mock, ± 20 μM probenecid", "value": "not substrates"},
      {"measurement": "AUC(0-inf)", "setting": "in vivo", "value": "550 ± 144000", "unit": "ng·h/mL"},
      {"measurement": "AUC(0-t)", "setting": "in vivo", "value": "480 ± 180", "unit": "ng·h/mL"},
      {"measurement": "Cmax", "setting": "in vivo", "value": "275 ± 144", "unit": "ng/mL"},
      {"measurement": "Kp", "setting": "in vivo", "value": "64.6 ± 31.8"}
    ]}
  ]
}
